Results reported in the supplement of paper PMC10307832.

Columns and labels:
Experiment in all cases: relative viability (nuclei count vs DMSO), 5 days (fraction); higher = more cells survive
[1] = system: NCI-H1563
Procedure, shortened: (§1)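 Dosing by pin tool came one day after lung cancer cell lines were seeded in 1536-well plates, using either one drug or a fixed anchor-drug dose plus five library-drug doses (not always all listed) in √10 steps. After 5 days, nuclei were counted on 4× images. Relative viability is treated-well nuclei count divided by vehicle-well nuclei count, and values are medians of duplicate plates.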

[2] = system: H3255
Procedure, shortened: as §1

[3] = system: NCI-H1993
Procedure, shortened: as §1

[4] = system: 201T
Procedure, shortened: as §1

[5] = system: NCI-H2085
Procedure, shortened: as §1

[6] = system: NCI-H1650
Procedure, shortened: as §1

[7] = system: EPLC-272H
Procedure, shortened: as §1

[8] = system: LOU-NH91
Procedure, shortened: as §1

[9] = system: NCI-H2170
Procedure, shortened: as §1

[10] = system: RERF-LC-KJ
Procedure, shortened: as §1

[11] = system: PC-14
Procedure, shortened: as §1

[12] = system: NCI-H520
Procedure, shortened: as §1

[13] = system: NCI-H647
Procedure, shortened: as §1

[14] = system: NCI-H2023
Procedure, shortened: as §1

[15] = system: SW 900
Procedure, shortened: as §1

[16] = system: NCI-H1734
Procedure, shortened: as §1

[17] = system: NCI-H2347
Procedure, shortened: as §1

[18] = system: NCI-H3122
Procedure, shortened: as §1

[19] = system: NCI-H2405
Procedure, shortened: as §1

[20] = system: NCI-H1793
Procedure, shortened: as §1

[21] = system: NCI-H441
Procedure, shortened: as §1

[22] = system: COR-L23
Procedure, shortened: as §1

In the case of `NC(=O)Nc1cc(-c2cccc(F)c2)sc1C(=O)N[C@H]1CCCNC1` [AZD7762] + COc1cc2c(Oc3ccc(NC(=O)C4(C(=O)Nc5ccc(F)cc5)CC4)cc3F)ccnc2cc1OCCCN1CCOCC1 [Foretinib] (partner 0.25 µM), the relative viability ([1]; first compound 0.01 µM) is reported as 1.04, the relative viability ([1]; first compound 0.03162 µM) is reported as 0.967 and the relative viability ([1]; first compound 0.1 µM) is reported as 0.974. The relative viability ([1]; first compound 0.3162 µM) was 0.94, the relative viability ([1]; first compound 1 µM) was 0.83 and the relative viability ([2]; first compound 0.01 µM) was 1.12. For the same compound, the relative viability ([2]; first compound 0.03162 µM) was 0.875, the relative viability ([2]; first compound 0.1 µM) was 0.972 and the relative viability ([2]; first compound 0.3162 µM) was 0.89. It also gave a relative viability ([2]; first compound 1 µM) of 0.859, a relative viability ([3]; first compound 0.01 µM) of 0.772 and a relative viability ([3]; first compound 0.03162 µM) of 0.878. The relative viability ([3]; first compound 0.1 µM) was 0.801, the relative viability ([3]; first compound 0.3162 µM) was 0.821 and the relative viability ([3]; first compound 1 µM) was 0.708. It also gave a relative viability ([4]; first compound 0.01 µM) of 1.17, a relative viability ([4]; first compound 0.03162 µM) of 1.26 and a relative viability ([4]; first compound 0.1 µM) of 1.11. It also gave a relative viability ([4]; first compound 0.3162 µM) of 0.961, a relative viability ([4]; first compound 1 µM) of 0.279 and a relative viability ([5]; first compound 0.01 µM) of 0.946. For the same compound, the relative viability ([5]; first compound 0.03162 µM) was 0.938, the relative viability ([5]; first compound 0.1 µM) was 0.865 and the relative viability ([5]; first compound 0.3162 µM) was 1.21. It also gave a relative viability ([5]; first compound 1 µM) of 0.697, a relative viability ([6]; first compound 0.01 µM) of 1.25 and a relative viability ([6]; first compound 0.03162 µM) of 0.931. For the same compound, the relative viability ([6]; first compound 0.1 µM) was 1.14, the relative viability ([6]; first compound 0.3162 µM) was 0.804 and the relative viability ([6]; first compound 1 µM) was 0.24. The relative viability ([7]; first compound 0.01 µM) was 0.676, the relative viability ([7]; first compound 0.03162 µM) was 0.654 and the relative viability ([7]; first compound 0.1 µM) was 0.654. The relative viability ([7]; first compound 0.3162 µM) was 0.615, the relative viability ([7]; first compound 1 µM) was 0.256 and the relative viability ([8]; first compound 0.01 µM) was 0.925. It also gave a relative viability ([8]; first compound 0.03162 µM) of 0.947, a relative viability ([8]; first compound 0.1 µM) of 0.96 and a relative viability ([8]; first compound 0.3162 µM) of 0.93. For the same compound, the relative viability ([8]; first compound 1 µM) was 0.737, the relative viability ([9]; first compound 0.01 µM) was 0.925 and the relative viability ([9]; first compound 0.03162 µM) was 1.06. For the same compound, the relative viability ([9]; first compound 0.1 µM) was 0.984, the relative viability ([9]; first compound 0.3162 µM) was 1.04 and the relative viability ([9]; first compound 1 µM) was 1.13. For the same compound, the relative viability ([10]; first compound 0.01 µM) was 0.882, the relative viability ([10]; first compound 0.03162 µM) was 0.891 and the relative viability ([10]; first compound 0.1 µM) was 0.965. For the same compound, the relative viability ([10]; first compound 0.3162 µM) was 0.944, the relative viability ([10]; first compound 1 µM) was 0.97 and the relative viability ([11]; first compound 0.01 µM) was 1.04. The relative viability ([11]; first compound 0.03162 µM) was 0.927, the relative viability ([11]; first compound 0.1 µM) was 0.973 and the relative viability ([11]; first compound 0.3162 µM) was 0.885. For the same compound, the relative viability ([11]; first compound 1 µM) was 0.361, the relative viability ([12]; first compound 0.01 µM) was 0.989 and the relative viability ([12]; first compound 0.03162 µM) was 0.826. The relative viability ([12]; first compound 0.1 µM) was 0.803, the relative viability ([12]; first compound 0.3162 µM) was 0.518 and the relative viability ([12]; first compound 1 µM) was 0.351. It also gave a relative viability ([13]; first compound 0.01 µM) of 1.23, a relative viability ([13]; first compound 0.03162 µM) of 1.32 and a relative viability ([13]; first compound 0.1 µM) of 1.23. The relative viability ([13]; first compound 0.3162 µM) was 1.19, the relative viability ([13]; first compound 1 µM) was 0.326 and the relative viability ([14]; first compound 0.01 µM) was 0.788. For the same compound, the relative viability ([14]; first compound 0.03162 µM) was 0.529, the relative viability ([14]; first compound 0.1 µM) was 0.652 and the relative viability ([14]; first compound 0.3162 µM) was 0.393. It also gave a relative viability ([14]; first compound 1 µM) of 0.098, a relative viability ([15]; first compound 0.01 µM) of 0.777 and a relative viability ([15]; first compound 0.03162 µM) of 0.84. It also gave a relative viability ([15]; first compound 0.1 µM) of 1.29, a relative viability ([15]; first compound 0.3162 µM) of 0.825 and a relative viability ([15]; first compound 1 µM) of 0.533. The relative viability ([16]; first compound 0.01 µM) was 0.979, the relative viability ([16]; first compound 0.03162 µM) was 0.97 and the relative viability ([16]; first compound 0.1 µM) was 0.929. For the same compound, the relative viability ([16]; first compound 0.3162 µM) was 0.807, the relative viability ([16]; first compound 1 µM) was 0.436 and the relative viability ([17]; first compound 0.01 µM) was 1.55. It also gave a relative viability ([17]; first compound 0.03162 µM) of 0.791, a relative viability ([17]; first compound 0.1 µM) of 0.767 and a relative viability ([17]; first compound 0.3162 µM) of 0.616. It also gave a relative viability ([17]; first compound 1 µM) of 0.51, a relative viability ([18]; first compound 0.01 µM) of 0.911 and a relative viability ([18]; first compound 0.03162 µM) of 0.905. The relative viability ([18]; first compound 0.1 µM) was 0.995, the relative viability ([18]; first compound 0.3162 µM) was 0.996 and the relative viability ([18]; first compound 1 µM) was 0.996. The relative viability ([19]; first compound 0.01 µM) was 1.13, the relative viability ([19]; first compound 0.03162 µM) was 1.07 and the relative viability ([19]; first compound 0.1 µM) was 1.05. For the same compound, the relative viability ([19]; first compound 0.3162 µM) was 1.03, the relative viability ([19]; first compound 1 µM) was 0.67 and the relative viability ([20]; first compound 0.01 µM) was 0.732. It also gave a relative viability ([20]; first compound 0.03162 µM) of 0.682, a relative viability ([20]; first compound 0.1 µM) of 0.595 and a relative viability ([20]; first compound 0.3162 µM) of 0.8. The relative viability ([20]; first compound 1 µM) was 0.608, the relative viability ([21]; first compound 0.01 µM) was 1.3 and the relative viability ([21]; first compound 0.03162 µM) was 1.07. The relative viability ([21]; first compound 0.1 µM) was 1.11, the relative viability ([21]; first compound 0.3162 µM) was 1.19 and the relative viability ([21]; first compound 1 µM) was 0.955. The relative viability ([22]; first compound 0.01 µM) was 1.18, the relative viability ([22]; first compound 0.03162 µM) was 0.955 and the relative viability ([22]; first compound 0.1 µM) was 1.08. For the same compound, the relative viability ([22]; first compound 0.3162 µM) was 0.842 and the relative viability ([22]; first compound 1 µM) was 0.292.
